Patent US12077503B2, “Substituted cyclic amides and their use as herbicides” (FMC CORPORATION, priority 2015, dated 2024)

Tests used:
Type in all cases: in vivo
[1] = tested on: barnyardgrass (Echinochloa crus-galli); assay: Test B flooded paddy test; details: Echinochloa crus-galli, 250 g ai/ha, Flood; 0 to 100 scale where 0 is no effect and 100 is complete control; read-out: Barnyardgrass plant response rating
How it was run: (§1)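 Compound goes directly into floodwater once pots are flooded 3 cm above soil, targeting plants at two leaves; the water depth is then held for the test duration. Plants sit 13–15 d in a greenhouse and are rated visually, 100 denoting complete control.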

[2] = tested on: ducksalad (Heteranthera limosa); assay: Test B flooded paddy test; details: Heteranthera limosa, 250 g ai/ha, Flood; 0 to 100 scale where 0 is no effect and 100 is complete control; read-out: Ducksalad plant response rating
How it was run: as §1

[3] = tested on: sedge, umbrella (small-flower umbrella sedge, Cyperus difformis); assay: Test B flooded paddy test; details: Cyperus difformis, 250 g ai/ha, Flood; 0 to 100 scale where 0 is no effect and 100 is complete control; read-out: Sedge, Umbrella plant response rating
How it was run: as §1

rice (Oryra sativa) = assay: Test B flooded paddy test; details: Oryza sativa, 250 g ai/ha, Flood; 0 to 100 scale where 0 is no effect and 100 is complete control; read-out: Rice plant response rating
How it was run: as §1

[4] = tested on: barnyardgrass (Echinochloa crus-galli); assay: Test A postemergence; details: Echinochloa crus-galli, post-emergence, 240 h
How it was run: (§2)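 Visual injury scores from 0, no effect, to 100, complete control, were assigned versus untreated controls roughly 10 d after treatment in the greenhouse. Test chemicals, formulated with surfactant in a non-phytotoxic solvent, were applied to planted seeds as a preemergence soil spray or postemergence to one- to two-leaf plants 2 to 10 cm tall, in loam–sand soil.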

[5] = tested on: blackgrass (Alopecurus myosuroides); assay: Test A postemergence; details: Alopecurus myosuroides, post-emergence, 240 h
How it was run: as §2

[6] = tested on: pigweed (Amaranthus retroflexus); assay: Test A postemergence; details: Amaranthus retroflexus, post-emergence, 240 h
How it was run: as §2

[7] = tested on: giant foxtail (Setaria faberii); assay: Test A postemergence; details: Setaria faberi, post-emergence, 240 h
How it was run: as §2

[8] = tested on: Galium (catchweed bedstraw, Galium aparine); assay: Test A postemergence; details: Galium, post-emergence, 240 h
How it was run: as §2

[9] = tested on: wheat (Triticum aestivum); assay: Test A postemergence; details: Triticum aestivum, post-emergence, 240 h
How it was run: as §2

Kochia (Kochia scoparia) [10] = assay: Test A postemergence; details: Bassia scoparia, post-emergence, 240 h
How it was run: as §2

[11] = tested on: ryegrass, Italian (Italian ryegrass, Lolium multiflorum); assay: Test A postemergence; details: Lolium multiflorum, post-emergence, 240 h
How it was run: as §2

[12] = tested on: ragweed (common ragweed, Ambrosia elatior); assay: Test A postemergence; details: Ambrosia artemisiifolia, post-emergence, 240 h
How it was run: as §2

corn (Zea mays) = assay: Test A postemergence; details: Zea mays, post-emergence, 240 h
How it was run: as §2

[13] = tested on: barnyardgrass (Echinochloa crus-galli); assay: Test A preemergence; details: Echinochloa crus-galli, pre-emergence, 240 h, Preemergence
How it was run: as §2

[14] = tested on: pigweed (Amaranthus retroflexus); assay: Test A preemergence; details: Amaranthus retroflexus, pre-emergence, 240 h, 0 to 100 scale where 0 is no effect and 100 is complete control, read-out: Pigweed plant response rating
[15] = tested on: giant foxtail (Setaria faberii); assay: Test A preemergence; details: Setaria faberi, pre-emergence, 240 h, Preemergence
How it was run: as §2

Kochia (Kochia scoparia) [16] = assay: Test A preemergence; details: Bassia scoparia, pre-emergence, 240 h, 0 to 100 scale where 0 is no effect and 100 is complete control, read-out: Kochia plant response rating
How it was run: as §2

[17] = tested on: ryegrass, Italian (Italian ryegrass, Lolium multiflorum); assay: Test A preemergence; details: Lolium multiflorum, pre-emergence, 240 h, 0 to 100 scale where 0 is no effect and 100 is complete control, read-out: Ryegrass, Italian plant response rating
How it was run: as §2

[18] = tested on: ragweed (common ragweed, Ambrosia elatior); assay: Test A preemergence; details: Ambrosia artemisiifolia, pre-emergence, 240 h, 0 to 100 scale where 0 is no effect and 100 is complete control, read-out: Ragweed plant response rating
How it was run: as §2

[19] = 125 g ai/ha, preemergence, approx. 10 d

## Cc1ccc([C@H]2CN(C)C(=O)[C@@H]2C(=O)Nc2cnccc2C(F)(F)F)cc1 [Compound 1067]
[1]
  pest or weed control at 250 g/ha: 20%
[2]
  pest or weed control at 250 g/ha: 85%
[3]
  pest or weed control at 250 g/ha: 0%
Rice (Oryra sativa)
  pest or weed control at 250 g/ha: 0%
[4]; 125 g ai/ha, postemergence, visual injury on 0 to 100 scale (0 no effect, 100 complete control), approx. 10 d, read-out: Barnyardgrass plant response rating
  pest or weed control at 125 g/ha: 60%
[4]; Postemergence, 31 g ai/ha, visual injury after approx. 10 d, 0 to 100 scale, 0 no effect, 100 complete control, read-out: Plant response rating, Barnyardgrass
  pest or weed control at 31 g/ha: 20%
[5]; 125 g ai/ha, postemergence, visual injury on 0 to 100 scale (0 no effect, 100 complete control), approx. 10 d, read-out: Blackgrass plant response rating
  pest or weed control at 125 g/ha: 50%
[5]; Postemergence, 31 g ai/ha, visual injury after approx. 10 d, 0 to 100 scale, 0 no effect, 100 complete control, read-out: Plant response rating, Blackgrass
  pest or weed control at 31 g/ha: 0%
[6]; 125 g ai/ha, postemergence, visual injury on 0 to 100 scale (0 no effect, 100 complete control), approx. 10 d, read-out: Pigweed plant response rating
  pest or weed control at 125 g/ha: 0%
[6]; Postemergence, 31 g ai/ha, visual injury after approx. 10 d, 0 to 100 scale, 0 no effect, 100 complete control, read-out: Plant response rating, Pigweed
  pest or weed control at 31 g/ha: 0%
[7]; 125 g ai/ha, postemergence, visual injury on 0 to 100 scale (0 no effect, 100 complete control), approx. 10 d, read-out: Foxtail, Giant plant response rating
  pest or weed control at 125 g/ha: 90%
[7]; Postemergence, 31 g ai/ha, visual injury after approx. 10 d, 0 to 100 scale, 0 no effect, 100 complete control, read-out: Plant response rating, Foxtail, Giant
  pest or weed control at 31 g/ha: 30%
[8]; 125 g ai/ha, postemergence, visual injury on 0 to 100 scale (0 no effect, 100 complete control), approx. 10 d, read-out: Galium plant response rating
  pest or weed control at 125 g/ha: 50%
[8]; Postemergence, 31 g ai/ha, visual injury after approx. 10 d, 0 to 100 scale, 0 no effect, 100 complete control, read-out: Plant response rating, Galium
  pest or weed control at 31 g/ha: 0%
[9]; 125 g ai/ha, postemergence, visual injury on 0 to 100 scale (0 no effect, 100 complete control), approx. 10 d, read-out: Wheat plant response rating
  plant injury at 125 g/ha: 40%
[9]; Postemergence, 31 g ai/ha, visual injury after approx. 10 d, 0 to 100 scale, 0 no effect, 100 complete control, read-out: Plant response rating, Wheat
  plant injury at 31 g/ha: 0%
Kochia (Kochia scoparia) [10]; 125 g ai/ha, postemergence, visual injury on 0 to 100 scale (0 no effect, 100 complete control), approx. 10 d, read-out: Kochia plant response rating
  pest or weed control at 125 g/ha: 30%
Kochia (Kochia scoparia) [10]; Postemergence, 31 g ai/ha, visual injury after approx. 10 d, 0 to 100 scale, 0 no effect, 100 complete control, read-out: Plant response rating, Kochia
  pest or weed control at 31 g/ha: 0%
[11]; 125 g ai/ha, postemergence, visual injury on 0 to 100 scale (0 no effect, 100 complete control), approx. 10 d, read-out: Ryegrass, Italian plant response rating
  pest or weed control at 125 g/ha: 0%
[11]; Postemergence, 31 g ai/ha, visual injury after approx. 10 d, 0 to 100 scale, 0 no effect, 100 complete control, read-out: Plant response rating, Ryegrass, Italian
  pest or weed control at 31 g/ha: 0%
[12]; 125 g ai/ha, postemergence, visual injury on 0 to 100 scale (0 no effect, 100 complete control), approx. 10 d, read-out: Ragweed plant response rating
  pest or weed control at 125 g/ha: 0%
[12]; Postemergence, 31 g ai/ha, visual injury after approx. 10 d, 0 to 100 scale, 0 no effect, 100 complete control, read-out: Plant response rating, Ragweed
  pest or weed control at 31 g/ha: 0%
Corn (Zea mays); 125 g ai/ha, postemergence, visual injury on 0 to 100 scale (0 no effect, 100 complete control), approx. 10 d, read-out: Corn plant response rating
  plant injury at 125 g/ha: 0%
Corn (Zea mays); Postemergence, 31 g ai/ha, visual injury after approx. 10 d, 0 to 100 scale, 0 no effect, 100 complete control
  Corn plant response rating (crop injury, 0 = no effect, 100 = complete kill) at 31 g/ha: 0%
[13]; 31 g ai/ha, 0 to 100 scale where 0 is no effect and 100 is complete control, read-out: Barnyardgrass plant response rating
  pest or weed control at 31 g/ha: 30%
[13]; 125 g ai/ha, visual injury rating after approximately 10 d, read-out: Barnyardgrass plant response rating (0 to 100 scale, 0 is no effect, 100 is complete control)
  pest or weed control at 125 g/ha: 100%
[14]; 31 g ai/ha, Preemergence
  pest or weed control at 31 g/ha: 0%
[14]; [19]
  pest or weed control at 125 g/ha: 0%
[15]; 31 g ai/ha, 0 to 100 scale where 0 is no effect and 100 is complete control, read-out: Foxtail, Giant plant response rating
  pest or weed control at 31 g/ha: 90%
[15]; 125 g ai/ha, visual injury rating after approximately 10 d, read-out: Foxtail, Giant plant response rating (0 to 100 scale, 0 is no effect, 100 is complete control)
  pest or weed control at 125 g/ha: 100%
Kochia (Kochia scoparia) [16]; 31 g ai/ha, Preemergence
  pest or weed control at 31 g/ha: 0%
Kochia (Kochia scoparia) [16]; [19]
  pest or weed control at 125 g/ha: 70%
[17]; 31 g ai/ha, Preemergence
  pest or weed control at 31 g/ha: 20%
[17]; [19]
  pest or weed control at 125 g/ha: 70%
[18]; 31 g ai/ha, Preemergence
  pest or weed control at 31 g/ha: 0%
[18]; [19]
  pest or weed control at 125 g/ha: 60%
